Results on seven compounds are retold here after patent US9890147B2 (BAYER PHARMA AKTIENGESELLSCHAFT, priority 2012, dated 2018).

One test has as its system MV4-11 cells. The test can be described thus: Cell proliferation assay (alamarBlue), MV4-11. In kind it is cell-based. The note with it: Homo sapiens, 72 hours incubation, inhibition of cell proliferation. The protocol: (§1) In accordance with the invention, the capability of the substances to inhibit cell proliferation was determined Cell viability was determined using the alamarBlue® reagent (Invitrogen) in a Victor X3 Multilabel Reader (Perkin Elmer). The excitation wavelength was 530 nm and the emission wavelenth […].
The MV4-11 cells (ATCC, CRL 9591) were sown at a concentration of 5000 cells/well in 100 μl growth medium (RPMI1640, 10% FCS) on 96-well microtitre plates.
(§2) After an overnight incubation at 37° C., the fluorescence values (CI values) were determined. The plates were then treated with various substance dilutions (1E-5 M, 3E-6 M, 1E-6M, 3E-7 M, 1E-7 M, 3E-8 M, 1E-8 M) and incubated at 37° C. for 72 (MV4-11-, LOX-IMVI cells), 96 (MOLM-13-, B16F10-, MDA-MB-431-, Caov-3 cells), 120 (MOLP-8-, KMS-12-PE cells) or 168 (LAPC-4 cells) hours. The fluorescence values (CO values) were then determined. For the data analysis, the CI values were subtracted from the CO values and the results were compared between cells treated with different dilutions of the substance or with buffer solution only. These were used to calculate the IC 50 values (substance concentration required for 50% inhibition of cell proliferation).
On the technique in general: The colour change of resazurin is a common sign of viable cells or microbes.

In a further test the test system is MOLP-8 cells. The test can be described thus: Cell proliferation assay (alamarBlue), MOLP-8. In kind it is cell-based. The note with it: Homo sapiens, 120 hours incubation, inhibition of cell proliferation. The method, then: as §1
The MOLP-8 cells (DSMZ, ACC 569) were sown at a concentration of 4000 cells/well in 100 μl growth medium (RPMI1640, 20% FCS) on 96-well microtitre plates.
as §2

Another test deals with LOX-IMVI cells. In words: Cell proliferation assay (alamarBlue), LOX-IMVI. As to conditions: Homo sapiens, 72 hours incubation, inhibition of cell proliferation. Format: cell-based. The protocol:
as §1
The LOX-IMVI cells (NCI-60) were sown at a concentration of 1000 cells/well in 100 μl growth medium (RPMI1640, 10% FCS) on 96-well microtitre plates.
as §2

In the next test the test system is Caov-3 cells. The test can be described thus: Cell proliferation assay (alamarBlue), Caov-3. In kind it is cell-based. The note with it: Homo sapiens; inhibition of cell proliferation, Caov-3 (ovarian carcinoma), 96 hours. The method, then:
as §1
The MDA-MB-231 cells (DSMZ, ACC 732) were sown at a concentration of 4000 cells/well in 100 μl growth medium (DMEM/Ham's F12 medium, 10% FCS) on 96-well microtitre plates. The Caov-3 cells (ATCC, HTB-75) were sown at a concentration of 2000 cells/well in 100 μl growth medium (MEM Earle's medium, 10% FCS) on 96-well microtitre plates.
as §2

The target in the next test is T1, BRD4 (BD1) (Homo sapiens, UniProt O60885).
T1 construct: with relatively long constructs also being possible, preferably amino acids 44-168; made in house; host or cells: E. coli
In words: Binding assay BRD4/acetylated peptide H4 (TR-FRET protein-protein interaction assay). The essentials:
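His6-BRD4 BD1 (aa 67-152, E. coli), usually 10 nM, with biotinylated tetra-acetylated H4 peptide in HEPES pH 7.5 buffer; 11 compound concentrations 0.1 nM–20 μM in duplicate, 10 min preincubation, 1 h at 22 °C then ≥3 h at 4 °C. TR-FRET 665/620 ratio; IC50 by 4-parameter fit.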
Background: Time-resolved FRET reads energy transfer from a long-lived donor to a nearby acceptor.

The subject of a further test is KMS-12-PE cells. In words: Cell proliferation assay (alamarBlue), KMS-12-PE. Format: cell-based. As to conditions: Homo sapiens, 120 hours incubation, inhibition of cell proliferation. The protocol: as §1
The KMS-12-PE cells (DSMZ, ACC 606) were sown at a concentration of 4000 cells/well in 100 μl growth medium (RPMI1640, 20% FCS) on 96-well microtitre plates.
as §2

Another test relates to MOLM-13 cells. In words: Cell proliferation assay (alamarBlue), MOLM-13. As to conditions: Homo sapiens, 96 hours incubation, inhibition of cell proliferation. Format: cell-based. The procedure, abridged:
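Cells in RPMI1640/10% FCS read by alamarBlue fluorescence (ex 530, em 590 nm) after overnight 37 °C incubation, then treated at 1E-5 to 1E-8 M for 96 h. Pre-treatment values subtracted from endpoint values and compared with buffer-only wells; IC50 is 50% proliferation inhibition.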

By IC50 is commonly meant the concentration that inhibits the measured activity by half. The low end stands for greater potency, the high end for weaker potency.

As for `CNC(=O)N1N=C(c2ccc(N3CCN(C(=O)C(F)(F)F)CC3)cc2)c2cc(OC)c(OC)cc2CC1C` (racemic) [Example 133, (±)-7,8-dimethoxy-N,4-dimethyl-1-{4-[4-(trifluoroacetyl)piperazin-1-yl]phenyl}-4,5-dihydro-3H-2,3-benzodiazepine-3-carboxamide], the IC50 with MV4-11 cells was determined as 80 nM; in the test with MOLP-8 cells, 70 nM; with LOX-IMVI cells, 170 nM; in the test on Caov-3 cells, 180 nM; on BRD4 (BD1), 50 nM; in the test on KMS-12-PE cells, 80 nM. Further, half-maximal inhibition with MOLM-13 cells (IC50) was put at 180 nM.

On to `CNC(=O)N1N=C(c2ccc(N3CCN(S(C)(=O)=O)CC3)cc2)c2cc(OC)c(OC)cc2CC1C` (racemic) [Example 135, (±)-7,8-dimethoxy-N,4-dimethyl-1-{4-[4-(methylsulphonyl)piperazin-1-yl]phenyl}-4,5-dihydro-3H-2,3-benzodiazepine-3-carboxamide], for which the IC50 with MV4-11 cells was 120 nM; in the test on MOLP-8 cells, 130 nM; in the test on LOX-IMVI cells it was 360 nM; in the test on Caov-3 cells it was 300 nM; on BRD4 (BD1), 50 nM; in the test on KMS-12-PE cells, 120 nM. In the test with MOLM-13 cells, the IC50 worked out at 200 nM.

Consider `CNC(=O)N1N=C(c2ccc(N3CCCCC3)cc2)c2cc(OC)c(OC)cc2CC1C` (racemic) [Example 139, (±)-7,8-dimethoxy-N,4-dimethyl-1-[4-(piperidin-1-yl)phenyl]-4,5-dihydro-3H-2,3-benzodiazepine-3-carboxamide], for which the half-maximal inhibitory concentration (IC50) is 130 nM with MV4-11 cells; 130 nM in the test with MOLP-8 cells; 380 nM in the test on LOX-IMVI cells; 310 nM in the test on Caov-3 cells; 40 nM on BRD4 (BD1); 110 nM in the test on KMS-12-PE cells. The half-inhibitory concentration (IC50) in the test on MOLM-13 cells was determined as 210 nM.

Turning to `CNC(=O)N1N=C(c2ccc(-n3nc(-c4ccccc4)cc3C)cc2)c2cc(OC)c(OC)cc2CC1C` (racemic) [Example 147, (±)-7,8-Dimethoxy-N,4-dimethyl-1-[4-(5-methyl-3-phenyl-1H-pyrazol-1-yl)phenyl]-4,5-dihydro-3H-2,3-benzodiazepine-3-carboxamide], the concentration for half-maximal inhibition (IC50) with MV4-11 cells was 50 nM; in the test with MOLP-8 cells it was 80 nM; with LOX-IMVI cells it was 180 nM; in the test on Caov-3 cells, 180 nM; at BRD4 (BD1), 30 nM; in the test on KMS-12-PE cells, 60 nM. Moreover, the half-inhibitory concentration (IC50) in the test on MOLM-13 cells was 70 nM.

Regarding `CNC(=O)N1N=C(c2ccc(-n3nc(-c4ccccc4)cc3C3CC3)cc2)c2cc(OC)c(OC)cc2CC1C` (racemic) [Example 148, (±)-1-[4-(5-cyclopropyl-3-phenyl-1H-pyrazol-1-yl)phenyl]-7,8-dimethoxy-N,4-dimethyl-4,5-dihydro-3H-2,3-benzodiazepine-3-carboxamide], the concentration for half-maximal inhibition (IC50) in the test with MV4-11 cells is 70 nM; in the test on MOLP-8 cells, 90 nM; in the test with LOX-IMVI cells it was 250 nM; in the test on Caov-3 cells, 300 nM; at BRD4 (BD1), 40 nM; with KMS-12-PE cells it was 80 nM. Moreover, the 50% inhibitory concentration (IC50) in the test with MOLM-13 cells is 80 nM.

Consider `CNC(=O)N1N=C(c2ccc(-c3c(C)noc3C)cc2)c2cc(Cl)c(OC)cc2CC1C` (racemic) [Example 157, (±)-8-chloro-1-[4-(3,5-dimethylisoxazol-4-yl)-phenyl]-7-methoxy-N,4-dimethyl-4,5-dihydro-3H-2,3-benzodiazepine-3-carboxamide], for which the IC50 with MV4-11 cells amounted to 190 nM; in the test on MOLP-8 cells, 120 nM; in the test on LOX-IMVI cells, 580 nM; with Caov-3 cells, 420 nM; at BRD4 (BD1), 210 nM; with KMS-12-PE cells it was 240 nM. Half-maximal inhibition in the test with MOLM-13 cells (IC50) required 90 nM.

With `CNC(=O)N1N=C(c2ccc(N3CCOC3=O)cc2)c2cc(OC)c(OC)cc2C[C@@H]1C` [Example 34.1, (4S)-7,8-Dimethoxy-N,4-dimethyl-1-[4-(2-oxooxazolidin-3-yl)phenyl]-4,5-dihydro-3H-2,3-benzodiazepine-3-carboxamide], the IC50 in the test on MV4-11 cells was 120 nM; in the test with MOLP-8 cells it was 80 nM; in the test on LOX-IMVI cells it was 440 nM; with Caov-3 cells, 310 nM; on BRD4 (BD1), 40 nM; in the test on KMS-12-PE cells, 80 nM. In addition, it took 240 nM to reach half-maximal inhibition with MOLM-13 cells (IC50).
